For orientation: IC50 means the concentration that gives 50% inhibition.

Some results are limits rather than exact numbers.

Sequence of EGFR (human) (P00533 whole entry, looked up): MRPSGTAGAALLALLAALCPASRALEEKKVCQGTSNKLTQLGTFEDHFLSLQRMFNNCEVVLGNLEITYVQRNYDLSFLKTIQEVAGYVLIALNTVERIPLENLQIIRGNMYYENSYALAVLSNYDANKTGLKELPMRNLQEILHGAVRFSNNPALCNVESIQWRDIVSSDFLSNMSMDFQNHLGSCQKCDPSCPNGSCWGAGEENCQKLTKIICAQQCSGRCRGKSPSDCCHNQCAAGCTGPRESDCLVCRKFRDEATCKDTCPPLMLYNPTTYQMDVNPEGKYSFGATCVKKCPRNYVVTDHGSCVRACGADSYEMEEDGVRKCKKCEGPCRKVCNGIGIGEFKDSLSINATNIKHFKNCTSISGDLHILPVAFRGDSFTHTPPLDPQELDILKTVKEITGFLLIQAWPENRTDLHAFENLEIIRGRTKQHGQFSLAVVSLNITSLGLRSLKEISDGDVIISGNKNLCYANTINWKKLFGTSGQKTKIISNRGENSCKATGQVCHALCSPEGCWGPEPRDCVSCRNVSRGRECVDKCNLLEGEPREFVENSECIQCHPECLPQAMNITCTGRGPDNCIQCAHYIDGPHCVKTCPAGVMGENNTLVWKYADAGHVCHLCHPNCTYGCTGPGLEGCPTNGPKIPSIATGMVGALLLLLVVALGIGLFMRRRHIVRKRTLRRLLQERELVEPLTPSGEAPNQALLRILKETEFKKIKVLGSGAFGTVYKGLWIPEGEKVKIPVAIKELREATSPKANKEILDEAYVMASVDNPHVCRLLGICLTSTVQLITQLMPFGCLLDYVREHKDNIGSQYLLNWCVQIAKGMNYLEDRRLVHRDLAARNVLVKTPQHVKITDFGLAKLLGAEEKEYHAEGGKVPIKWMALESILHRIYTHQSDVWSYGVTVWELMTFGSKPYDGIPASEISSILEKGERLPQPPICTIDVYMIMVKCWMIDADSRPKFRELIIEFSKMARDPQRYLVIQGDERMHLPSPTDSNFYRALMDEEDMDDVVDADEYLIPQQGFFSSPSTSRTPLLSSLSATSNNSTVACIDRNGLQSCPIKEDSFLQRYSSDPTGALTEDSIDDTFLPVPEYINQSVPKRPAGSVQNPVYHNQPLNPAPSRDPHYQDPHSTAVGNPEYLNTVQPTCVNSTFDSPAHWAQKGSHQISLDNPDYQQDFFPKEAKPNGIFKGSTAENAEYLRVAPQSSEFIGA

This assay has as its target EGFR (human) (UniProt P00533). Conditions: a431.
As for `CS(=O)(=O)Nc1cccc(Nc2ncnc3cc4c(cc23)OCCO4)c1`, the half-inhibitory concentration (IC50) was over 10 µM.
`Cc1ccnc(Nc2ncnc3cc4c(cc23)OCO4)c1` had an IC50 of over 10 µM.
With `Cc1cccc(Nc2ncnc3cc4c(cc23)OCO4)n1` the figure was over 10 µM; with `Cn1c(=O)n(C)c2cc3c(Nc4cccc(C(F)(F)F)c4)ncnc3cc21`, over 10 µM; with `Brc1cccc(Nc2ncnc3c2ccc2ccccc23)c1`, over 10 µM.
Molecule `Cc1cccc(Nc2ncnc3cc4c(cc23)OCCO4)n1` returned an IC50 of over 10 µM.
As to `Cn1c(=O)n(C)c2cc3c(Nc4cccc(Br)c4)ncnc3cc21`, the IC50 is over 10 µM.
Molecule `Cc1cccc(Nc2ncnc3c2ccc2ccccc23)c1` displayed an IC50 of over 10 µM.
With `CS(=O)(=O)Nc1cccc(Nc2ncnc3cc4c(cc23)OCO4)c1`, the IC50 was over 10 µM.
In the case of `Cc1cccc(Nc2ncnc3cc4c(cc23)n(C)c(=O)n4C)c1`, the IC50 was over 10 µM.
In the case of `FC(F)(F)c1cccc(Nc2ncnc3c2ccc2ccccc23)c1` it was over 10 µM.

For the origin of these results see the Kinase Knowledgebase extract (Sharma et al. 2016).
